Values quoted from earlier work in article PMC11289879 (RSC Chemical Biology, 2024).

Assays:
acute heart failure = conditions: clinical trial (Novartis; second phase III)

DSWMEEVIKLCGRELVRAQIAICGMSTWS [B-chain]
solubility in an acidic solvent: poorly soluble

Human relaxin-2 [H2 relaxin]
effect on the treatment of acute heart failure (acute heart failure): no significant effect
